Laboratory results published in patent publication US5500430A, “Amidic derivatives of glutamic, aspartic and 2-amino adipic acids, a process for preparing same, and anti-gastrin composition containing the derivatives” (Rotta Research Laboratorium S.p.A., priority 1990, dated 1996).

Legend:
[1] = tested on: gastric acid secretion induced by pentagastrin; assay: Antisecretive activity in anaesthetised rats (pentagastrin-stimulated gastric acid secretion); format: in vivo
Procedure: Antisecretive activity in anaesthetised rats
Antisecretive activity in rats was determined with the use of male animals each weighing about 200 g, anaesthetised with urethane. Gastric secretion was stimulated with pentagastrin. The method of K. S. Lai (Gut 5, (1964), 327-341) was used, slightly modified.
After tracheotomy, cannulae were inserted in the oesophagus and the duodenum. A tepid solution. (37° C.) of 0.25 mM NaOH was perfused and passed through the stomach by means of a peristaltic pump at a constant flow rate of 1 ml/minute. After stabilisation for 20 minutes, the stimulating agent, dissolved in a physiological solution, was perfused for 120 minutes at a dose of 30 mcg/Kg/h in a volume of 0.95 ml/hour. After perfusion for 60 minutes (the basal stimulation), the product under test was administered as an intravenous bolus (I.V.) and the perfusion of the stimulant continued for a further 60 minutes. Acid secretion was recorded continuously as a function of time.
(§1) The activity of the product was evaluated as the percentage reduction in the secreted acidity after the administration of the product compared with the base acidity measured during the first 60 minutes of collection during which only the pentagastrin was present.
Different doses of the antagonist compounds tested were administered so that an ID50, that is, the dose (in mg/Kg I.V.) capable of inhibiting the effect of pentagastrin by 50%, could be calculated.
The results thus obtained are illustrated in the following table (Table 1) in which the activities of the compounds are expressed as the ID50s under the stimulus of 30 mcg/Kg/h of pentagastrin.

[2] = Acute intravenous toxicity in rats (LD50); conditions: rat, in vivo
From the text: The activity of these compounds against gastric secretion is linked specifically to their antigastrin activity.

[3] = tested on: gastric acid secretion induced by pentagastrin; assay: Antisecretive activity in conscious dogs carrying gastric fistulae; format: in vivo, dogs (beagles); conditions: for ED50: Canis lupus familiaris, iv, read-out: ID50 (the source's name)
Procedure: Antisecretive activity in conscious dogs
Male beagles weighing about 10 Kg were used and carried gastric fistulae at the level of the greater curvature, connected near the antral region, steel cannulae 5 cm long and 2 cm wide being inserted for collecting the gastric juices externally. After a period of about one month to recover from the operation, and after suitable conditioning, the animals were treated with pentagastrin at a dose of 3 mcg/Kg/h. The Stimulant, dissolved in a physiological solution, was perfused into the femoral vein for 180 minutes at a rate of 1.9 ml/h. After perfusion for 60 minutes (the basal stimulation) the product under test, dissolved in a physiological solution (1 ml/Kg), was administered in a bolus into the contra-lateral vein and, at the same time, the perfusion of the stimulant continued for a further 120 minutes. The acid secretion was recorded continuously as a function of time.
as §1, with “present, for each of the periods 0-60 and 60-120 minutes after the product had been administered in a bolus.” for “present.”
Different doses of the compounds (C-1 and C-5) tested were administered so that an ID50, that is the dose (in mg/Kg I.V.) capable of inhibiting the effect of the pentagastrin by 50% could be calculated.
The results obtained are given in the following table (Tab. 2) in which the % variations from the base (the mean ± standard deviations calculated on the values obtained from 4 animals) are given for the various doses administered under the stimulus of 3 mcg/Kg/h of pentagastrin, as well as the activities of the compounds, calculated as their ID50s, and the correlation coefficients of the regression lines calculated on the basis of the experimental data.

[4] = tested on: guinea-pig gall bladder contracted with CCK-8; assay: Anticholecystokinin (anti-CCK) activity on guinea-pig gall bladders stimulated by CCK-8 in vitro; conditions: CCK-8 concentration 10 ng/ml, Krebs, 32° C.
Procedure: Anticholecystokinin (anti-cc, K) activity
In order to confirm the hypothesis that the molecular conformations of the compounds of the invention are suitable to provide them with antagonistic activity towards CCK as well as towards gastrin, the anticontracturant activities of some of the compounds of the invention were tested on guinea-pig gall bladders stimulated by CCK-8 in vitro.
A longitudinal strip of guinea-pig gall bladder was placed in a bath for isolated organs in the presence of Krebs at a temperature of 32° C. and oxygenated continuously with an oxygen-CO2 mixture (95-5 V/V).
The isometric contractions were detected by means of a force transducer and recorded.
The gall bladder was contracted with the use of a concentration of 10 ng/ml of CCK-8; the antagonistic activities of the compounds towards the contracturant effect of the CCK was determined with the use of different concentrations, thus determining the IC50 values, that is, the concentration of the compound in mcg/ml which can antagonise the contracturant effect of CCK by 50%.

[5] = tested on: mouse colic adenocarcinoma; assay: Colic tumorous growth induced by pentagastrin in mice; format: in vivo; conditions: 21 days
From the text: Inhibitory effect on the rate of growth of tumorous colic cells induced by pentagastrin
Gastrin has a trophic effect on the digestive epithelium.
Upon the basis of this premise, it was wished to investigate whether the gastrin-specific antagonists of the invention could antagonise the growth of experimentally-induced gastrointestinal tumours.
Male mice weighing 20-25 g were inoculated subcutaneously in the interscapular region with a suspension of 8×10^4 tumour cells of a mouse colic adenocarcinoma.
After 21 days, the animals were killed and the fundic mucosa and the tumours were removed, weighed and extracted to determine the DNA.

[6] = pentagastrin + C-5 3 mg/Kg i.p. twice a day
[7] = pentagastrin + C-5 10 mg/Kg i.p. twice a day

O=C(O)CC[C@@H](NC(=O)c1cc(Cl)cc(Cl)c1)C(=O)N1CCC2(CCCC2)CC1 [Compound C5]
ED50 ([1]; Rattus norvegicus, iv, anaesthetised male rats, pentagastrin 30 mcg/Kg/h, I.V. bolus, IN with bound, read-out: Antagonistic activity (ID50) towards gastric acid secretion induced by pentagastrin): 15 mg/kg | Antigastrin activity (in words) ([1]; anaesthetised rats, pentagastrin 30 mcg/Kg/h): particularly favourable | Activity as peripheral pentagastrin inhibitor relative to compound C-30 ([1]; rats, vs C-30): slightly more active | LD50 [2]: ~400 mg/kg | selectivity ratio [2]: ~25 | Variation % (Mean ± SD) from base (0-60 min) ([3]; 5 mg/Kg I.V., period 60-120 min): -36.0 ± 16.3% | Variation % (Mean ± SD) from base (0-60 min) ([3]; 5 mg/Kg I.V., period 120-180 min): -20.5 ± 13.1% | Variation % (Mean ± SD) from base (0-60 min) ([3]; 10 mg/Kg I.V., period 60-120 min): -59.5 ± 5.0% | Variation % (Mean ± SD) from base (0-60 min) ([3]; 10 mg/Kg I.V., period 120-180 min): -31.9 ± 1.3% | Variation % (Mean ± SD) from base (0-60 min) ([3]; 30 mg/Kg I.V., period 60-120 min): -67.8 ± 4.8% | Variation % (Mean ± SD) from base (0-60 min) ([3]; 30 mg/Kg I.V., period 120-180 min): -48.1 ± 1.7% | ED50 ([3]; 1 h, conscious dogs, I.V. bolus, period 60-120 min (first hour after administration)): 8.9 mg/kg | ED50 ([3]; 2 h, conscious dogs, I.V. bolus, period 120-180 min (second hour after administration)): 32.5 mg/kg | ID50 ([3]; conscious dogs, I.V. bolus, period 60-120 min (first hour after administration), 60 min): ~10 mg/kg | Inhibition of gastric acid secretion induced by pentagastrin in dogs (in words) ([3]; conscious dogs, first hour after bolus): potent inhibitors of gastric acid secretion induced by pentagastrin in dogs | Anti-CCK activity IC50 [4]: 34.8 µg/mL | Effect on colic tumour weight and DNA content (in words) ([5]; mice): can inhibit both the aforementioned trophic effects of pentagastrin in a significant and dose-dependent manner | Tumorous DNA, Mean [5, 6]: 3.24 ± 0.42 mg | Weight of the colic tumor, Mean ± SD [5, 6]: 601.5 ± 91.7 mg | Tumorous DNA, Mean [5, 7]: 2.94 ± 0.31 mg | Weight of the colic tumor, Mean ± SD [5, 7]: 554 ± 61.7 mg
